Test results published in patent US11052087B2, “Anti-HIV compounds” (priority 2018, dated 2021).
≈ marks a conversion by molar mass, not a printed value. Read-outs that look alike come from different tables or passages of the source.

Key:
[1] = Kinetic Solubility Analysis (CLND); assay type: physicochemical; conditions: 26 °C, kinetic from dmso stock
Procedure: Kinetic Solubility Analysis (CLND) Buffer Preparation:
0.1N HCl: Hydrochloric acid, 0.1N standardized solution.
1×PBS, 7.4: Phosphate Buffered Saline solution 10×, PBS 50 mL was added to approximately 450 mL HPLC grade H2O. The volume of the solution was then adjusted to 500 mL for a total dilution factor of 1:10 and a final PBS concentration of IX.
Kinetic Solubility from DMSO Stocks:
The final DMSO concentration is 1.0% and maximum theoretical compound concentration is 100 μM (assuming stock concentration of 10 mM). The filter plate was sealed. […] The collection plate was sealed for analysis. Filtrates were injected into the nitrogen detector for quantification.
The equimolar nitrogen response of the detector was calibrated using standards which spanned the dynamic range of the instrument from […] nitrogen. The filtrates were quantified with respect to this calibration curve. The calculated solubility values were corrected for background nitrogen present in the DMSO and the media used to prepare the samples.

[2] = system: HIV-1 (IIIB) in MT-4 cells; assay: MT-4 HIV Assay; assay type: cell-based
Procedure: Compounds were tested in a high-throughput 384-well assay format for their ability to inhibit the replication of HIV-1 (IIIB) in MT-4 cells. Compounds were serially diluted (1:3) in DMSO on 384-well polypropylene plates and further diluted 200-fold into complete RPMI media (10% FBS, 1% P/S) using the Biotek Micro Flow and Agilent ECHO acoustic dispenser. Each plate contained up to 8 test compounds, with negative (No Drug Control) and 5 μM AZT positive controls. MT-4 cells were pre-infected with 10 μL of either RPMI (mock-infected) or a fresh 1:250 dilution of an HIV-1 (IIIB) concentrated virus stock. Infected and uninfected MT-4 cells were further diluted in complete RPMI media and added to each plate using a Micro Flow dispenser. After 5 days incubation in a humidified and temperature controlled incubator (37° C.), Cell Titer Glo (Promega) was added to the assay plates to quantify the amount of luciferase. EC50 values were defined as the compound concentration that causes a 50% decrease in luminescence signal, and were calculated using a sigmoidal dose-response model to generate curve fits.

[3] = 0.1N HCl, pH 1, simulated gastric fluid, read-out: Solubility, HCl, pH 1.0, RT
[4] = PBS, pH 7.4, aqueous buffer, read-out: Solubility, PBS, pH 7.4, RT

COC(=O)N[C@H](C(=O)N[C@@H](Cc1ccc(C#Cc2ccc(N3CC4CCC(C3)N4C3COC3)nc2)cc1)[C@H](CN(Cc1c(F)cc(-c2ccn(C(F)F)n2)cc1F)NC(=O)[C@@H](NC(=O)OC)C(C)(C)C(F)(F)F)OC(=O)OCOP(=O)(O)O)C(C)(C)C(F)(F)F [Example 13, methyl ((5S,10S,11S,14S)-8-(4-(1-(difluoromethyl)-1H-pyrazol-3-yl)-2,6-difluorobenzyl)-16,16,16-trifluoro-15,15-dimethyl-11-(4-((6-(8-(oxetan-3-yl)-3,8-diazabicyclo[3.2.1]octan-3-yl)pyridin-3-yl)ethynyl)benzyl)-3,6,13-trioxo-10-((((phosphonooxy)methoxy)carbonyl)oxy)-5-(1,1,1-trifluoro-2-methylpropan-2-yl)-2-oxa-4,7,8,12-tetraazahexadecan-14-yl)carbamate]
solubility at 24 h [1, 3]: 67.4 µM (≈ 88.2 µg/mL)
solubility at 24 h [1, 4]: < 1 µM

COC(=O)N[C@H](C(=O)N[C@@H](Cc1ccc(C#Cc2cnc(N3CC4CCC(C3)N4C3COC3)nc2)cc1)[C@H](CN(Cc1c(F)cc(-c2ccn(C(F)F)n2)cc1F)NC(=O)[C@@H](NC(=O)OC)C(C)(C)C(F)(F)F)OC(=O)CN(C)C)C(C)(C)C(F)(F)F [Example 10, (2S,3S)-1-(1-(4-(1-(difluoromethyl)-1H-pyrazol-3-yl)-2,6-difluorobenzyl)-2-((S)-4,4,4-trifluoro-2-((methoxycarbonyl)amino)-3,3-dimethylbutanoyl)hydrazinyl)-4-(4-((2-(8-(oxetan-3-yl)-3,8-diazabicyclo[3.2.1]octan-3-yl)pyrimidin-5-yl)ethynyl)phenyl)-3-((S)-4,4,4-trifluoro-2-((methoxycarbonyl)amino)-3,3-dimethylbutanamido)butan-2-yl dimethylglycinate]
solubility at 24 h [1, 3]: 79.3 µM (≈ 98.4 µg/mL)
solubility at 24 h [1, 4]: < 1 µM

COC(=O)N[C@H](C(=O)N[C@@H](Cc1ccc(C#Cc2cnc(N3CC4CCC(C3)N4C3COC3)nc2)cc1)[C@H](CN(Cc1c(F)cc(-c2ccn(C(F)F)n2)cc1F)NC(=O)[C@@H](NC(=O)OC)C(C)(C)C(F)(F)F)OC(=O)[C@@H](N)CCCCN)C(C)(C)C(F)(F)F [Example 9, (2S,3S)-1-(1-(4-(1-(difluoromethyl)-1H-pyrazol-3-yl)-2,6-difluorobenzyl)-2-((S)-4,4,4-trifluoro-2-((methoxycarbonyl)amino)-3,3-dimethylbutanoyl)hydrazinyl)-4-(4-((2-(8-(oxetan-3-yl)-3,8-diazabicyclo[3.2.1]octan-3-yl)pyrimidin-5-yl)ethynyl)phenyl)-3-((S)-4,4,4-trifluoro-2-((methoxycarbonyl)amino)-3,3-dimethylbutanamido)butan-2-yl L-lysinate]
EC50 ([2]; Human immunodeficiency virus 1, MT4, 120 h, HIV-1 (IIIB) replication in MT-4 cells, 5 days incubation, Cell Titer Glo, read-out: EC50): 20.6 nM
solubility at 24 h [1, 3]: 86.8 µM (≈ 111 µg/mL)
solubility at 24 h [1, 4]: 6.8 µM (≈ 8.73 µg/mL)

COC(=O)N[C@H](C(=O)N[C@@H](Cc1ccc(C#Cc2cnc(N3CC4CCC(C3)N4C3COC3)nc2)cc1)[C@H](CN(Cc1c(F)cc(-c2ccn(C(F)F)n2)cc1F)NC(=O)[C@@H](NC(=O)OC)C(C)(C)C(F)(F)F)OC(=O)CCC[N+](C)(C)C)C(C)(C)C(F)(F)F [Example 7, (5S,10S)-8-(4-(1-(difluoromethyl)-1H-pyrazol-3-yl)-2,6-difluorobenzyl)-N,N,N-trimethyl-10-((1 S)-2-(4-((2-(8-(oxetan-3-yl)-3,8-diazabicyclo[3.2.1]octan-3-yl)pyrimidin-5-yl)ethynyl)phenyl)-1-((S)-4,4,4-trifluoro-2-((methoxycarbonyl)amino)-3,3-dimethylbutanamido)ethyl)-3,6,2-trioxo-5-(1,1,1-trifluoro-2-methylpropan-2-yl)-2,11-dioxa-4,7,8-triazapentadecan-15-aminium 2,2,2-trifluoroacetate]
EC50 ([2]; Human immunodeficiency virus 1, IIIB, MT4, 120 h): 247 nM
